The assay deals with T1, mTOR (Homo sapiens, UniProt P42345).
T1 construct: FLAG; made in house
In words: In Vitro mTOR Kinase Assay (Echo), Test (a)(ii). The assay is classed as biochemical. In outline: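 Inhibition expressed as IC50 from an AlphaScreen read-out: phospho-T389 p70 S6K antibody plus streptavidin donor/protein A acceptor beads, left overnight in the dark. The kinase reaction ran 2 h at room temperature, then was stopped with EDTA. Enzyme: FLAG-purified mTOR 1362-2549 fragment from stable HEK293 cells.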

Setting [1] is: read-out: mTOR Kinase Assay (Echo).
Setting [2] is: table of enzyme assay Test (a)(ii), read-out: Test (a)(ii) IC50.

SMILES strings stand for the structures. Like-named read-outs stand apart in the source and are kept apart here.

T1 sequence (P42345 1362-2549): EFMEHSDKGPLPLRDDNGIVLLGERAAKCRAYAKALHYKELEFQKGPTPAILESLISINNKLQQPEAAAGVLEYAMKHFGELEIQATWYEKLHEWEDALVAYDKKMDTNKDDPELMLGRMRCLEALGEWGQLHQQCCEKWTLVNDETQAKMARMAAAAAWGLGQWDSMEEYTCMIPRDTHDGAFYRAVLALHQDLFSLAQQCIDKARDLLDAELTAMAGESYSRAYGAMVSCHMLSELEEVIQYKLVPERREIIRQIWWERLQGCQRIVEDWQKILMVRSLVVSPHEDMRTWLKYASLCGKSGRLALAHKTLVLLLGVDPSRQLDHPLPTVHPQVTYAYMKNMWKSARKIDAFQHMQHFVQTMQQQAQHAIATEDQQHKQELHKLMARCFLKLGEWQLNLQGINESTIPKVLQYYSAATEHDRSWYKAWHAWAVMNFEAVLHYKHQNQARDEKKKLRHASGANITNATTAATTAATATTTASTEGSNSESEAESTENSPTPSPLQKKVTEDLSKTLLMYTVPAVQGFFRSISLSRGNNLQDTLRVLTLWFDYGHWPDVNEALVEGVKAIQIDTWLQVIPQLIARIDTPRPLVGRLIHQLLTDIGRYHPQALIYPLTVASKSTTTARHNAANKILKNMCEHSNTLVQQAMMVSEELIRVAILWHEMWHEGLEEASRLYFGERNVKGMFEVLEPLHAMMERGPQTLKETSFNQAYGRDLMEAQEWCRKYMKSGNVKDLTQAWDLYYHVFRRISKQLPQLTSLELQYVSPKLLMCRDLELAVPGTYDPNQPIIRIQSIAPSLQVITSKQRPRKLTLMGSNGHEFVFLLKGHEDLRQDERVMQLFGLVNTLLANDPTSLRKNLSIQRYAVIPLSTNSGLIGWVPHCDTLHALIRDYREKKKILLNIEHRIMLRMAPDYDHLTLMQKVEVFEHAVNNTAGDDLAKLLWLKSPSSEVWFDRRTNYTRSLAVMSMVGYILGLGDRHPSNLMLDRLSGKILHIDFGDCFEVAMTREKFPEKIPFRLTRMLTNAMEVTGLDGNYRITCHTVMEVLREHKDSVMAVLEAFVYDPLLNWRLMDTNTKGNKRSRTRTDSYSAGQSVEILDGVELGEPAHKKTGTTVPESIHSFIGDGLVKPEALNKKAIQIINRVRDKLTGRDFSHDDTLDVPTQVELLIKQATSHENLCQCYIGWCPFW

As for `C[C@H]1COCCN1c1cc(C2(S(C)(=O)=O)CCCC2)nc(-c2ccc(NC(=O)NCc3ncc[nH]3)cc2)n1` [Example 4n, 3-(1H-imidazol-2-ylmethyl)-1-[4-[4-[(3S)-3-methylmorpholin-4-yl]-6-(1-methylsulfonylcyclopentyl)pyrimidin-2-yl]phenyl]urea], the IC50 under setting [1] came out at 39.2 nM.
Same read-out and setting: the value for `CNC(=O)Nc1ccc(-c2nc(N3CCOC[C@@H]3C)cc(C3(S(C)(=O)=O)CCC3)n2)cc1` [Example 5, 3-Methyl-1-[4-[4-[(3S)-3-methylmorpholin-4-yl]-6-(1-methylsulfonylcyclobutyl)pyrimidin-2-yl]phenyl]urea] was 0.802 nM.
In the case of `CCNC(=O)Nc1ccc(-c2nc(N3CCOC[C@@H]3C)cc(C3(S(C)(=O)=O)CCC3)n2)cc1` [Example 5a, 3-ethyl-1-[4-[4-[(3S)-3-methylmorpholin-4-yl]-6-(1-methylsulfonylcyclobutyl)pyrimidin-2-yl]phenyl]urea], the IC50 under setting [1] was found to be 0.289 nM.
Still for that read-out and setting: the value for `CC(C)NC(=O)Nc1ccc(-c2nc(N3CCOC[C@@H]3C)cc(C3(S(C)(=O)=O)CCC3)n2)cc1` [Example 5c, 1-[4-[4-[(3S)-3-methylmorpholin-4-yl]-6-(1-methylsulfonylcyclobutyl)pyrimidin-2-yl]phenyl]-3-propan-2-yl-urea] was 6.81 nM.
Take `C[C@H]1COCCN1c1cc(C2(S(C)(=O)=O)CCC2)nc(-c2ccc(NC(=O)NC3CCC3)cc2)n1` [Example 5d, 3-cyclobutyl-1-[4-[4-[(3S)-3-methylmorpholin-4-yl]-6-(1-methylsulfonylcyclobutyl)pyrimidin-2-yl]phenyl]urea]: the IC50 stood at 3.85 nM under setting [1] and 2.74 nM under setting [2].
The matching figures for `C[C@H]1COCCN1c1cc(C2(S(C)(=O)=O)CCC2)nc(-c2ccc(NC(=O)NC(C)(C)CO)cc2)n1` [Example 5f, 3-(1-hydroxy-2-methyl-propan-2-yl)-1-[4-[4-[(3S)-3-methylmorpholin-4-yl]-6-(1-methylsulfonylcyclobutyl)pyrimidin-2-yl]phenyl]urea]: 7.36 nM and 4.85 nM.
For the molecule `C[C@H]1COCCN1c1cc(C2(S(C)(=O)=O)CCC2)nc(-c2ccc(NC(=O)NCCN(C)C)cc2)n1` [Example 5g, 3-(2-dimethylaminomethyl)-1-[4-[4-[(3S)-3-methylmorpholin-4-yl]-6-(1-methylsulfonylcyclobutyl)pyrimidin-2-yl]phenyl]urea], under setting [1], the IC50 turned out to be 66.8 nM.
In the case of `CCCNC(=O)Nc1ccc(-c2nc(N3CCOC[C@@H]3C)cc(C3(S(C)(=O)=O)CCC3)n2)cc1` [Example 5h, 1-[4-[4-[(3S)-3-methylmorpholin-4-yl]-6-(1-methylsulfonylcyclobutyl)pyrimidin-2-yl]phenyl]-3-propyl-urea], the IC50 under setting [1] worked out at 2.34 nM.
As to `CC(C)CNC(=O)Nc1ccc(-c2nc(N3CCOC[C@@H]3C)cc(C3(S(C)(=O)=O)CCC3)n2)cc1` [Example 5i, 1-[4-[4-[(3S)-3-methylmorpholin-4-yl]-6-(1-methylsulfonylcyclobutyl)pyrimidin-2-yl]phenyl]-3-(2-methylpropyl)urea], under setting [1], the IC50 is 9.88 nM.
On to `C[C@H]1COCCN1c1cc(C2(S(C)(=O)=O)CCC2)nc(-c2ccc(NC(=O)NCCCO)cc2)n1` [Example 5j, 3-(3-hydroxypropyl)-1-[4-[4-[(3S)-3-methylmorpholin-4-yl]-6-(1-methylsulfonylcyclobutyl)pyrimidin-2-yl]phenyl]urea], for which the IC50 was determined as 0.239 nM under setting [1] and 0.173 nM under setting [2].
`C[C@H]1COCCN1c1cc(C2(S(C)(=O)=O)CCC2)nc(-c2ccc(NC(=O)Nc3ccc(C(F)(F)F)cc3)cc2)n1` [Example 5k, 1-[4-[4-[(3S)-3-methylmorpholin-4-yl]-6-(1-methylsulfonylcyclobutyl)pyrimidin-2-yl]phenyl]-3-[4-(trifluoromethyl)phenyl]urea]: the IC50 under setting [1] stood at 3.33 nM.
For the molecule `C[C@H]1COCCN1c1cc(C2(S(C)(=O)=O)CCC2)nc(-c2ccc(NC(=O)Nc3ccccn3)cc2)n1` [Example 5l, 1-[4-[4-[(3S)-3-methylmorpholin-4-yl]-6-(1-methylsulfonylcyclobutyl)pyrimidin-2-yl]phenyl]-3-pyridin-2-yl-urea], the IC50 stood at 0.248 nM under setting [1] and 0.237 nM under setting [2].
Turning to `C[C@H]1COCCN1c1cc(C2(S(C)(=O)=O)CCC2)nc(-c2ccc(NC(=O)Nc3cnn(C)c3)cc2)n1` [Example 5m, 1-[4-[4-[(3S)-3-methylmorpholin-4-yl]-6-(1-methylsulfonylcyclobutyl)pyrimidin-2-yl]phenyl]-3-(1-methylpyrazol-4-yl)urea], the IC50 was 0.69 nM under setting [1] and 0.604 nM under setting [2].
Take `C[C@H]1COCCN1c1cc(C2(S(C)(=O)=O)CCC2)nc(-c2ccc(NC(=O)NCc3ncc[nH]3)cc2)n1` [Example 5n, 3-(1H-imidazol-2-ylmethyl)-1-[4-[4-[(3S)-3-methylmorpholin-4-yl]-6-(1-methylsulfonylcyclobutyl)pyrimidin-2-yl]phenyl]urea]: the IC50 under setting [1] came to 8.28 nM.
With `C[C@H]1COCCN1c1cc(C2(S(=O)(=O)c3ccncc3)CC2)nc(-c2ccc(NC(=O)NC3CCC3)cc2)n1` [Example 6, 3-Cyclobutyl-1-[4-[4-[(3S)-3-methylmorpholin-4-yl]-6-(1-pyridin-4-ylsulfonylcyclopropyl)pyrimidin-2-yl]phenyl]urea], the IC50 under setting [1] was found to be 1 nM.
As for `C[C@H]1COCCN1c1cc(C2(S(=O)(=O)c3ccncc3)CC2)nc(-c2ccc(NC(=O)Nc3ccccn3)cc2)n1` [Example 6a, 1-[4-[4-[(3S)-3-methylmorpholin-4-yl]-6-(1-pyridin-4-ylsulfonylcyclopropyl)pyrimidin-2-yl]phenyl]-3-pyridin-2-yl-urea], under setting [1], the IC50 is 2.93 nM.
For `CC(C)CNC(=O)Nc1ccc(-c2nc(N3CCOC[C@@H]3C)cc(C3(S(=O)(=O)c4ccncc4)CC3)n2)cc1` [Example 6b, 1-[4-[4-[(3S)-3-methylmorpholin-4-yl]-6-(1-pyridin-4-ylsulfonylcyclopropyl)pyrimidin-2-yl]phenyl]-3-(2-methylpropyl)urea], the IC50 under setting [1] was determined as 6.12 nM.
With `CC(C)NC(=O)Nc1ccc(-c2nc(N3CCOC[C@@H]3C)cc(C3(S(=O)(=O)c4ccncc4)CC3)n2)cc1` [Example 6c, 1-[4-[4-[(3S)-3-methylmorpholin-4-yl]-6-(1-pyridin-4-ylsulfonylcyclopropyl)pyrimidin-2-yl]phenyl]-3-propan-2-yl-urea], the IC50 under setting [1] amounted to 3.21 nM.
As for `CCNC(=O)Nc1ccc(-c2nc(N3CCOC[C@@H]3C)cc(C3(S(=O)(=O)c4ccncc4)CC3)n2)cc1` [Example 6d, 3-ethyl-1-[4-[4-[(3S)-3-methylmorpholin-4-yl]-6-(1-pyridin-4-ylsulfonylcyclopropyl)pyrimidin-2-yl]phenyl]urea], the IC50 under setting [1] was determined as 0.874 nM.
For the molecule `C[C@H]1COCCN1c1cc(C2(S(=O)(=O)c3ccncc3)CC2)nc(-c2ccc(NC(=O)NCCN(C)C)cc2)n1` [Example 6e, 3-(2-dimethylaminoethyl)-1-[4-[4-[(3S)-3-methylmorpholin-4-yl]-6-(1-pyridin-4-ylsulfonylcyclopropyl)pyrimidin-2-yl]phenyl]urea], under setting [1], the IC50 stood at 67.3 nM.
The same measure, in the same setting: the same measure for `C[C@H]1COCCN1c1cc(C2(S(=O)(=O)c3ccncc3)CC2)nc(-c2ccc(NC(=O)NCCO)cc2)n1` [Example 6f, 3-(2-hydroxyethyl)-1-[4-[4-[(3S)-3-methylmorpholin-4-yl]-6-(1-pyridin-4-ylsulfonylcyclopropyl)pyrimidin-2-yl]phenyl]urea]: 0.794 nM.
Consider `CCCNC(=O)Nc1ccc(-c2nc(N3CCOC[C@@H]3C)cc(C3(S(=O)(=O)c4ccncc4)CC3)n2)cc1` [Example 6g, 1-[4-[4-[(3S)-3-methylmorpholin-4-yl]-6-(1-pyridin-4-ylsulfonylcyclopropyl)pyrimidin-2-yl]phenyl]-3-propyl-urea], for which, under setting [1], the IC50 came to 2.25 nM.
Regarding `C[C@H]1COCCN1c1cc(C2(S(=O)(=O)c3ccncc3)CC2)nc(-c2ccc(NC(=O)Nc3ccc(C(F)(F)F)cc3)cc2)n1` [Example 6i, 1-[4-[4-[(3S)-3-methylmorpholin-4-yl]-6-(1-pyridin-4-ylsulfonylcyclopropyl)pyrimidin-2-yl]phenyl]-3-[4-(trifluoromethyl)phenyl]urea], under setting [1], the IC50 was 4.62 nM.
The same measure, in the same setting: the same measure for `C[C@H]1COCCN1c1cc(C2(S(=O)(=O)c3ccncc3)CC2)nc(-c2ccc(NC(=O)NC(C)(C)CO)cc2)n1` [Example 6j, 3-(1-hydroxy-2-methyl-propan-2-yl)-1-[4-[4-[(3S)-3-methylmorpholin-4-yl]-6-(1-pyridin-4-ylsulfonylcyclopropyl)pyrimidin-2-yl]phenyl]urea]: 5.93 nM; for `C[C@H]1COCCN1c1cc(C2(S(=O)(=O)c3ccncc3)CC2)nc(-c2ccc(NC(=O)NCCCO)cc2)n1` [Example 6k]: 1.86 nM; for `C[C@H]1COCCN1c1cc(C2(S(=O)(=O)c3ccncc3)CC2)nc(-c2ccc(NC(=O)Nc3cnn(C)c3)cc2)n1` [Example 6l, 1-[4-[4-[(3S)-3-methylmorpholin-4-yl]-6-(1-pyridin-4-ylsulfonylcyclopropyl)pyrimidin-2-yl]phenyl]-3-(1-methylpyrazol-4-yl)urea]: 1.19 nM.
Regarding `C[C@H]1COCCN1c1cc(C2(S(=O)(=O)c3ccncc3)CC2)nc(-c2ccc(NC(=O)NC3CC3)cc2)n1` [Example 6m, 3-cyclopropyl-1-[4-[4-[(3S)-3-methylmorpholin-4-yl]-6-(1-pyridin-4-ylsulfonylcyclopropyl)pyrimidin-2-yl]phenyl]urea], under setting [1], the IC50 came out at 0.936 nM.
On to `CNC(=O)Nc1ccc(-c2nc(N3CCOC[C@@H]3C)cc(C3(S(=O)(=O)C(C)C)CC3)n2)cc1` [Example 7, 3-Methyl-1-[4-[4-[(3S)-3-methylmorpholin-4-yl]-6-(1-propan-2-ylsulfonylcyclopropyl)pyrimidin-2-yl]phenyl]urea], for which the IC50 under setting [1] turned out to be 3.15 nM.
On to `CCNC(=O)Nc1ccc(-c2nc(N3CCOC[C@@H]3C)cc(C3(S(=O)(=O)C(C)C)CC3)n2)cc1` [Example 7a, 1-ethyl-3-[4-[4-[(3S)-3-methylmorpholin-4-yl]-6-(1-propan-2-ylsulfonylcyclopropyl)pyrimidin-2-yl]phenyl]urea], for which the IC50 under setting [1] amounted to 2.31 nM.

Source of the values: US20090018134A1, “Compounds - 945” (AstraZeneca AB, priority 2007, published 2009).
